# Assay results reported in patent US20020028469A1, “Method of defining genus of chemical compound and method of designing molecules” (priority 1997, published 2002).
# Legend:
# [1] = tested on: PDEIV; test: PDEIV inhibition (IC50); format: biochemical; settings: PDEIV inhibitory activity
# [2] = Solubility in aqueous solution, noted during coupling; format: physicochemical; settings: methanol used as solvent instead
# Procedure: 1: 6 mg Compound C was dissolved in 2 ml methanol in 50 ml centrifuge tube (methanol was used because Compound C is insoluble in aqueous solution).
IC50 [1],solubility in aqueous solution [2],SMILES
800 nM,insoluble,"COc1ccc(Cn2cncc3nc(C(C)C)nc2-3)cc1OC1CCCC1 [Compound C, 3-(3-cyclopentyloxy-4-methoxybenzyl)-8-isopropyl-3H-purine]"
3000 nM,–,"COc1ccc(C2CNC(=O)C2)cc1OC1CCCC1 (stereo not shown) [rolipram, reference compound]"
410 nM,–,"CCNc1ncn(Cc2ccc(OC)c(OC3CCCC3)c2)c2nc(C(C)C)nc1-2 [Compound A, 3-(3-cyclopentyloxy-4-methoxybenzyl)-6-ethylamino-8-isopropyl-purine]"
